These results are taken from patent publication US3950525A, “Relaxation of smooth muscle in a mammal” (Pfizer Inc., priority 1975, dated 1976).

The subject of this test is collagen induced platelet aggregation. As to the kind of experiment: In Vitro Inhibition of Platelet Aggregation (collagen induced, rabbit platelet-rich plasma). The following applies: Oryctolagus cuniculus, 10 min; for inhibition at 60 µM: 6 × 10^^-5 mol./l.; for inhibition at 6 µM: 6 × 10^^-6 mol./l.; for inhibition at 600 µM: 6 × 10^^-4 mol./l. It counts as cell-based. The procedure:
The ability of the compounds of the present invention to inhibit platelet aggregation in vitro is measured according to the method of Born, et al., J. Physiol., 168, 178 (1963) and comprises the following procedure: Anesthetized male rabbits are bled from a carotid artery into plastic centrifuge tubes containing 0.1 volume 3% sodium citrate. Platelet-rich plasma is separated by centrifugation at 100 G for 10 minutes at 20° C. […] After 10 minutes of incubation with the platelet-rich plasma at room temperature, collagen, a protein known to cause platelet aggregation, is added (0.27 ml. collagen/4 ml. plasma) and changes in the optical density are followed with a Spectronic 20 colorimeter attached to a Houston Instrument TY Recorder. Platelet aggregation is indicated by a decrease in optical density. The relative potency of the compounds of the present invention are thus rated on their ability to inhibit (percent) collagen induced platelet aggregation.

Structures can show the parent of a compound that is named as a salt.

In the case of `CCN(CC)c1cc(-c2cccc(N)c2)ncn1` [Ar=3-NH2C6H4; R1=C2H5; R2=C2H5; R3=H, 4-Diethylamino-6-(m-aminophenyl)pyrimidine dihydrochloride], the inhibition (in general, the relative decrease from the control value, in per cent) at 60 µM stood at 67% and testing at 6 µM gave an inhibition of 41%.
`CCc1c(-c2ccccc2)ncnc1N(CC)CC` [Ar=C6H5; R1=C2H5; R2=C2H5; R3=C2H5, 4-Diethylamino-5-ethyl-6-phenylpyrimidine Hydrochloride]: at 6 µM the inhibition was 48%.
`CN(C)c1cc(-c2cccs2)ncn1` [Ar=2-thienyl; R1=CH3; R2=CH3; R3=H] registered an inhibition at 600 µM of 94%, an inhibition at 60 µM of 82% and an inhibition at 6 µM of 59%.
The compound `CCCC(=O)Nc1cccc(-c2cc(N(CC)CC)ncn2)c1` gave an inhibition at 600 µM of 36% and an inhibition at 60 µM of 8%.
`CCN(CC)c1cc(-c2cccc(NC(=S)NC)c2)ncn1`: 600 µM produced 4.9% inhibition.
On to `CCN(CC)c1cc(-c2cccc(NC(=O)OC)c2)ncn1`, for which the inhibition at 600 µM turned out to be 95% and the inhibition at 60 µM came out at 11%.
Compound `CN(C)c1cc(-c2ccc(Cl)cc2)ncn1` [Ar=4-ClC6H4; R1=CH3; R2=CH3; R3=H, 4-Dimethylamino-6-(p-chlorophenyl)pyrimidine hydrochloride] registered an inhibition at 600 µM of 99%, an inhibition at 60 µM of 58% and an inhibition at 6 µM of 7%.
Regarding `CCc1c(-c2ccccc2)ncnc1N(C)C` [Ar=C6H5; R1=CH3; R2=CH3; R3=C2H5], the inhibition at 6 µM amounted to 50%.
Turning to `CCc1c(-c2ccco2)ncnc1N(CC)CC` [Ar=2-furyl; R1=C2H5; R2=C2H5; R3=C2H5], 60 µM produced 30% inhibition.
Take `CCN(CC)c1ncnc(-c2ccccc2)c1C(C)C` [Ar=C6H5; R1=C2H5; R2=C2H5; R3=i-C3H7]: the inhibition at 6 µM was determined as 63%.
Take `CCN(CC)c1cc(-c2ccc(Cl)cc2)ncn1` [Ar=4-ClC6H4; R1=C2H5; R2=C2H5; R3=H, 4-Diethylamino-6-(p-chlorophenyl)pyrimidine hydrochloride]: the inhibition at 60 µM was 73% and the inhibition at 6 µM is 32%.
For the compound `Nc1cc(-c2cccs2)ncn1` [Ar=2-thienyl; R1=H; R2=H; R3=H], the inhibition at 600 µM amounted to 91% and the inhibition at 60 µM worked out at 9%.
The compound `C=CCN(CC=C)c1cc(-c2cccs2)ncn1` displayed an inhibition at 60 µM of 50% and an inhibition at 6 µM of 40%.
In the case of `CCN(CC)c1cc(-c2cccs2)ncn1` [Ar=2-thienyl; R1=C2H5; R2=C2H5; R3=H, 4-diethylamino-6-(2-thienyl)pyrimidine], testing at 600 µM gave an inhibition of 94% and testing at 6 µM gave an inhibition of 75%.
The compound `CCCN(CCC)c1cc(-c2cccc(N)c2)ncn1` [Ar=3-NH2C6H4; R1=n-C3H7; R2=n-C3H7; R3=H] yielded an inhibition at 600 µM of 95%, an inhibition at 60 µM of 97% and an inhibition at 6 µM of 32%.
The compound `COc1ccc(-c2cc(NCC(C)C)ncn2)cc1` [Ar=4-CH3OC6H4; R1=H; R2=i-C4H9; R3=H] displayed an inhibition at 600 µM of 76%, an inhibition at 60 µM of 54% and an inhibition at 6 µM of 24%.
`CCCN(CCC)c1cc(-c2ccc(Cl)cc2)ncn1` [Ar=4-ClC6H4; R1=n-C3H7; R2=n-C3H7; R3=H, 4-Di(n-propyl)amino-6-(p-chlorophenyl)pyrimidine hydrochloride] gave an inhibition at 600 µM of 84% and an inhibition at 60 µM of 70%.
For `FC(F)(F)CNc1cc(-c2ccc(Cl)cc2)ncn1` [Ar=4-ClC6H4; R1=CF3CH2; R2=H; R3=H, 4-(2,2,2-Trifluoroethylamino)-6-(p-chlorophenyl)pyrimidine hydrochloride], in that order: 86% and 18%.
Taken in the same sequence, the figures for `CC(=O)Nc1cccc(-c2cc(N3CCCC3)ncn2)c1` [Ar=3-CH3CONHC6H4; R1,R2=--(CH2)4--; R3=H] were 94% and 30%.
For `Nc1cc(-c2ccccc2)ncn1` [Ar=C6H5; R1=H; R2=H; R3=H, 4-amino-6-phenylpyrimidine], in that order: 75% and 65%.
`CCN(CCO)c1cc(-c2ccc(OC)cc2)ncn1` returned an inhibition at 600 µM of 90%, an inhibition at 60 µM of 71% and an inhibition at 6 µM of 55%.
Compound `CCCN(CCC)c1cc(-c2cccc(C(F)(F)F)c2)ncn1` [Ar=3-CF3C6H4; R1=n-C3H7; R2=n-C3H7; R3=H, 4-Di(n-propyl)amino-6-(m-trifluoromethylphenyl)pyrimidine hydrochloride] registered an inhibition at 600 µM of 99% and an inhibition at 60 µM of 50%.
With `CCCCNc1cc(-c2ccccc2)ncn1` [Ar=C6H5; R1=n-C4H9; R2=H; R3=H], the inhibition at 60 µM was found to be 42% and 6 µM produced 30% inhibition.
In the case of `CN(CCO)c1cc(-c2ccccc2)ncn1` [Ar=C6H5; R1=HO(CH2)2; R2=CH3; R3=H, 4-[Methyl(2-hydroxyethyl)amino]-6-phenylpyrimidine hydrochloride], the inhibition at 600 µM was determined as 99%, the inhibition at 60 µM is 99% and testing at 6 µM gave an inhibition of 28%.
Regarding `CCCN(CCC)c1cc(-c2ccccc2)ncn1` [Ar=C6H5; R1=n-C3H7; R2=n-C3H7; R3=H], at 600 µM the inhibition was 83%, the inhibition at 60 µM is 49% and at 6 µM the inhibition was 41%.
As for `OCCN(CCO)c1cc(-c2ccccc2)ncn1` [Ar=C6H5; R1=HO(CH2)2; R2=HO(CH2)2; R3=H, 4-[Bis(2-hydroxyethyl)amino]-6-phenylpyrimidine hydrochloride], the inhibition at 600 µM is 84% and the inhibition at 60 µM came to 27%.
For the compound `COc1ccc(-c2cc(N)ncn2)cc1` [Ar=4-CH3OC6H4; R1=H; R2=H; R3=H], 600 µM produced 72% inhibition, at 60 µM the inhibition was 24% and at 6 µM the inhibition was 3%.
As for `CCCCN(CCCC)c1cc(-c2cccc(NC(C)=O)c2)ncn1`, at 600 µM the inhibition was 15%.
On to `c1ccc(-c2cc(N3CCCC3)ncn2)cc1` [Ar=C6H5; R1,R2=--(CH2)4--; R3=H, 4-(1-Pyrrolidinyl)-6-phenylpyrimidine hydrochloride], for which the inhibition at 600 µM is 98%, the inhibition at 60 µM was determined as 70% and the inhibition at 6 µM was 6%.
`CC(C)CNc1cc(-c2ccccc2)ncn1` [Ar=C6H5; R1=i-C4H9; R2=H; R3=H]: 60 µM produced 82% inhibition and at 6 µM the inhibition was 17%.
For the compound `CN(C)c1cc(-c2ccccc2)ncn1` [Ar=C6H5; R1=CH3; R2=CH3; R3=H], the inhibition at 600 µM came to 99% and the inhibition at 60 µM turned out to be 55%.
For `CN(C)CCNc1cc(-c2ccccc2)ncn1` [Ar=C6H5; R1=(CH3)2N(CH2)2; R2=H; R3=H], in that order: 99% and 30%.
Taken in the same sequence, the figures for `Clc1ccc(-c2cc(N3CCCC3)ncn2)cc1` [Ar=4-ClC6H4; R1,R2=--(CH2)4--; R3=H, 4-(1-Pyrrolidinyl)-6-(p-chlorophenyl)pyrimidine hydrochloride] were 99% and 21%.
As for `CC(C)Nc1cc(-c2ccccc2)ncn1` [Ar=C6H5; R1=i-C3H7; R2=H; R3=H], the inhibition at 60 µM turned out to be 88% and at 6 µM the inhibition was 29%.
Compound `CCCN(CCC)c1ncnc(-c2ccccc2)c1C` [Ar=C6H5; R1=n-C3H7; R2=n-C3H7; R3=CH3] registered an inhibition at 6 µM of 11%.
For the compound `CC(=O)Nc1cccc(-c2cc(N(C)C)ncn2)c1` [Ar=3-CH3CONHC6H4; R1=CH3; R2=CH3; R3=H], the inhibition at 600 µM was found to be 93% and testing at 60 µM gave an inhibition of 13%.
Take `CCN(CC)c1cc(-c2cccc(N(C)C)c2)ncn1` [Ar=3-(CH3)2NC6H4; R1=C2H5; R2=C2H5; R3=H, 4-Diethylamino-6-(m-dimethylaminophenyl)pyrimidine hydrochloride]: the inhibition at 600 µM turned out to be 89%, the inhibition at 60 µM came to 95% and the inhibition at 6 µM was 85%.
Compound `c1ccc(-c2cc(N3CCOCC3)ncn2)cc1` [Ar=C6H5; R1,R2=--(CH2)2O(CH2)2--; R3=H, 4-(4-Morpholinyl)-6-phenylpyrimidine hydrochloride] yielded an inhibition at 600 µM of 94%, an inhibition at 60 µM of 75% and an inhibition at 6 µM of 37%.
Take `CNc1cc(-c2ccccc2)ncn1` [Ar=C6H5; R1=CH3; R2=H; R3=H]: the inhibition at 600 µM turned out to be 99% and testing at 60 µM gave an inhibition of 66%.
On to `FC(F)(F)CNc1cc(-c2cccs2)ncn1` [Ar=2-thienyl; R1=CF3CH2; R2=H; R3=H], for which the inhibition at 60 µM came out at 81% and the inhibition at 6 µM was found to be 14%.
Compound `CCCN(CCC)c1cc(-c2cccc(NS(C)(=O)=O)c2)ncn1` had an inhibition at 600 µM of 94% and an inhibition at 60 µM of 3%.
`COc1ccc(-c2cc(N3CCCC3)ncn2)cc1` [Ar=4-CH3OC6H4; R1,R2=--(CH2)4--; R3=H] displayed an inhibition at 600 µM of 92%, an inhibition at 60 µM of 92% and an inhibition at 6 µM of 39%.
`CCc1c(-c2ccc(OC)cc2)ncnc1N(CC)CC` [Ar=4-CH3OC6H4; R1=C2H5; R2=C2H5; R3=C2H5] returned an inhibition at 6 µM of 42%.
`CC(C)CN(CC(C)C)c1cc(-c2ccccc2)ncn1` [Ar=C6H5; R1=i-C4H9; R2=i-C4H9; R3=H] yielded an inhibition at 600 µM of 35%, an inhibition at 60 µM of 24% and an inhibition at 6 µM of 10%.
